Measurements: patent US9914730B2, “Azaquinazoline inhibitors of Atypical protein Kinase C” (Ignyta, Inc., priority 2012, dated 2018)
Where a name gives a salt, the structure may show the parent alone.

Target: T1, full-length human PKCι (Homo sapiens, UniProt P41743)
T1 construct: Recombinant, full-length human PKCι expressed in Sf21 insect cells is also commercially available; purchased; host or cells: Sf21 insect cells
T1 sequence (P41743 1-596): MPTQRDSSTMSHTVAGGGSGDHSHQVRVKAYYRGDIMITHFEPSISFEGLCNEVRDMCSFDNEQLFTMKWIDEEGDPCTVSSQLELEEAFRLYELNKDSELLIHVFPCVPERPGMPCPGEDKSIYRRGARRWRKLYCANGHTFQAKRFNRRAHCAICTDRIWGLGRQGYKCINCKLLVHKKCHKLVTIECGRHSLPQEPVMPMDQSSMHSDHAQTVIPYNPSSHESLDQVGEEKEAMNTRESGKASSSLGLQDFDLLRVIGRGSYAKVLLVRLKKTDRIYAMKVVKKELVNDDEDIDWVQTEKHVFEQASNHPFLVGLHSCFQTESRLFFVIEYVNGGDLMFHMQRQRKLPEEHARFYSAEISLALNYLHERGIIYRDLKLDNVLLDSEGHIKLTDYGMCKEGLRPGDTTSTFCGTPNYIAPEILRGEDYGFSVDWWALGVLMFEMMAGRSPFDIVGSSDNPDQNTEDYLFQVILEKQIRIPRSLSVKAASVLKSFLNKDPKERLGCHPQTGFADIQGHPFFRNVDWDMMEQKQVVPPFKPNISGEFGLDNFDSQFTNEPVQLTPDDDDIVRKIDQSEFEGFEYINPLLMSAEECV
Assay: PKCι IC50 IMAP assay, full-length PKCι at 150 μM ATP
Format: biochemical
Conditions: read-out: IC50 in IMAP assay against full length PKCi at 150 μM ATP
Method in brief: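 IMAP fluorescence polarisation (ex 485/em 530 nm) read-out; % inhibition set from no-compound (0%) and no-enzyme (100%) controls, IC50 from dose-response curve fit. Sf21-expressed full-length enzyme ~15 pM, 100 nM FAM peptide, ATP 150 μM (5× KM^APP), 60 min at RT.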

Row | SMILES | IC50 [nM]
1 | CNc1nc(-c2ccnc(Nc3ccc(OCCN4CCCC4)cc3)c2)nc2cncc(OC)c12 [Example 501, (5-Methoxy-2-{2-[4-(2-pyrrolidin-1-yl-ethoxy)-phenylamino]-pyridin-4-yl}-pyrido[3,4-d]pyrimidin-4-yl)-methyl-amine] | 10000 to 40000
2 | COc1cncc2nc(-c3ccnc(Nc4cccc(C(F)(F)F)c4F)c3)nc(N3CCNCC3)c12 [Example 452, (2-Fluoro-3-trifluoromethyl-phenyl)-[4-(5-methoxy-4-piperazin-1-yl-pyrido[3,4-d]pyrimidin-2-yl)-pyridin-2-yl]-amine] | 100 to 1000
3 | N[C@H](CNc1nc(-c2ccncc2)nc2c(-c3ccc4occc4c3)nccc12)Cc1ccccc1 [Example 97, N-[(2S)-2-amino-3-phenylpropyl]-8-(1-benzofuran-5-yl)-2-(pyridin-4-yl)-pyrido[3,4-d]-pyrimidin-4-amine] | 100 to 1000
4 | COc1cncc2nc(N3CCOCC3)nc(N3CCN[C@@H](COc4ccccc4F)C3)c12 [Example 1008, 4-[(R)-3-(2-Fluoro-phenoxymethyl)-piperazin-1-yl]-5-methoxy-2-morpholin-4-yl-pyrido[3,4-d]pyrimidine] | 100 to 1000
5 | O=C(O)Cc1ccc(Nc2cc(-c3nc(N4CCNCC4)c4c(C5CC5)cncc4n3)ccn2)cc1 [Example 709, {4-[4-(5-Cyclopropyl-4-piperazin-1-yl-pyrido[3,4-d]pyrimidin-2-yl)-pyridin-2-ylamino]-phenyl}-acetic acid] | 100 to 1000
6 | O=C1CC(Nc2nc(-c3ccnc(Nc4c(F)cccc4F)c3)nc3cncc(C4CC4)c23)CCN1 (stereo not drawn) [Example 2076, 4-{5-Cyclopropyl-2-[2-(2,6-difluoro-phenylamino)-pyridin-4-yl]-pyrido[3,4-d]pyrimidin-4-ylamino}-piperidin-2-one] | 100 to 1000
7 | COc1cncc2nc(-c3ccncc3F)nc(N3CCNCC3)c12 [Example 63, 1-[2-(3-fluoropyridin-4-yl)-5-methoxypyrido-[3,4-d]pyrimidin-4-yl]piperazine] | 100 to 1000
8 | COc1cncc2nc(-c3ccnc(Nc4ccccc4)c3)nc(N3CCN4C(=O)OC[C@H]4C3)c12 [Example 435, (R)-7-[5-Methoxy-2-(2-phenylamino-pyridin-4-yl)-pyrido[3,4-d]pyrimidin-4-yl]-hexahydro-oxazolo[3,4-a]pyrazin-3-one] | 100 to 1000
9 | COc1cncc2nc(N3CCOCC3)nc(N3CCN[C@@H](COc4ccc(F)cc4)C3)c12 [Example 1010, 4-[(R)-3-(4-Fluoro-phenoxymethyl)-piperazin-1-yl]-5-methoxy-2-morpholin-4-yl-pyrido[3,4-d]pyrimidine] | 100 to 1000
10 | O=CN[C@H](CNc1nc(-c2ccncc2)nc2cnccc12)Cc1ccccc1 [Example 78, N—[(S)-1-Benzyl-2-(2-pyridin-4-yl-pyrido[3,4-d]pyrimidin-4-ylamino)-ethyl]-formamide] | 1000 to 10000
11 | COc1cncc2nc(-c3ccnc(Nc4ccccc4)c3)nc(N3CCC(O)CC3)c12 [Example 427, 1-[5-Methoxy-2-(2-phenylamino-pyridin-4-yl)-pyrido[3,4-d]pyrimidin-4-yl]-piperidin-4-ol] | 1000 to 10000
12 | CNC(=O)C1CCCN(c2nc(-c3ccnc(Nc4c(F)cccc4F)c3)nc3cncc(C4CC4)c23)C1 (stereo not drawn) [Example 707, 1-{5-Cyclopropyl-2-[2-(2,6-difluoro-phenylamino)-pyridin-4-yl]-pyrido[3,4-d]pyrimidin-4-yl}-piperidine-3-carboxylic acid methylamide] | 10000 to 40000
13 | COc1cncc2nc(-c3ccnc(Nc4ccccc4)c3)nc(N3CCC(O)C(CO)C3)c12 (stereo not drawn) [Example 443, 3-Hydroxymethyl-1-[5-methoxy-2-(2-phenylamino-pyridin-4-yl)-pyrido[3,4-d]pyrimidin-4-yl]-piperidin-4-ol] | 1000 to 10000

Results, then the molecule that gave them:

Row | IC50 [nM] | SMILES
14 | 100 to 1000 | FC[C@H]1CN(c2nc(-c3ccnc(Nc4cc(C(F)(F)F)ccn4)c3)nc3cncc(C4CC4)c23)CCN1 [Example 511, {4-[5-Cyclopropyl-4-((R)-3-fluoromethyl-piperazin-1-yl)-pyrido[3,4-d]pyrimidin-2-yl]-pyridin-2-yl}-(4-trifluoromethyl-pyridin-2-yl)-amine]
15 | < 100 | c1ccc(Nc2cc(-c3nc(N4CCNCC4)c4c(C5CCC5)cncc4n3)ccn2)cc1 [Example 619, [4-(5-Cyclobutyl-4-piperazin-1-yl-pyrido[3,4-d]pyrimidin-2-yl)-pyridin-2-yl]-phenyl-amine]
16 | < 100 | Fc1ccccc1Nc1cc(-c2nc(N3CCN[C@@H](C4CC4)C3)c3c(C4CC4)cncc3n2)ccn1 [Example 276, {4-[5-Cyclopropyl-4-((S)-3-cyclopropyl-piperazin-1-yl)-pyrido[3,4-d]pyrimidin-2-yl]-pyridin-2-yl}-(2 fluoro-phenyl)-amine]
17 | < 100 | CC(C)(C)c1cc2c(-c3nc(N4CCC(O)CC4)c4c(C5CC5)cncc4n3)ccnc2[nH]1 [Example 1247, 1-[2-(2-tert-Butyl-1H-pyrrolo[2,3-b]pyridin-4-yl)-5-cyclopropyl-pyrido[3,4-d]pyrimidin-4-yl]-piperidin-4-ol]
18 | < 100 | CC(C)(C)c1cc2c(-c3nc(N4CCNC(=O)CC4)c4c(C5CC5)cncc4n3)ccnc2[nH]1 [Example 1249, 1-[2-(2-tert-Butyl-1H-pyrrolo[2,3-b]pyridin-4-yl)-5-cyclopropyl-pyrido[3,4-d]pyrimidin-4-yl]-[1,4]diazepan-5-one]
19 | < 100 | CCc1cncc2nc(-c3ccncc3)nc(NC[C@@H](N)Cc3ccccc3)c12 [Example 137, N-[(2S)-2-amino-3-phenylpropyl]-5-ethyl-2-(pyridin-4-yl)pyrido[3,4-d]pyrimidin-4-amine]
20 | < 100 | COc1cncc2nc(-c3ccnc(Nc4cnn(-c5ccccc5F)c4)c3)nc(N3CCNCC3)c12 [Example 491, [1-(2-Fluoro-phenyl)-1H-pyrazol-4-yl]-[4-(5-methoxy-4-piperazin-1-yl-pyrido[3,4-d]pyrimidin-2-yl)-pyridin-2-yl]-amine]
21 | < 100 | COc1cncc2nc(-c3ccnc(Nc4cccc(C(F)(F)F)n4)c3)nc(N3CCNCC3)c12 [Example 449, [4-(5-Methoxy-4-piperazin-1-yl-pyrido[3,4-d]pyrimidin-2-yl)-pyridin-2-yl]-(6-trifluoromethyl-pyridin-2-yl)-amine]
22 | < 100 | c1ccc2c(c1)OCCC2Nc1cc(-c2nc(N3CCNCC3)c3c(C4CC4)cncc3n2)ccn1 (stereo not drawn) [Example 712, Chroman-4-yl-[4-(5-cyclopropyl-4-piperazin-1-yl-pyrido[3,4-d]pyrimidin-2-yl)-pyridin-2-yl]-amine]
23 | < 100 | c1ccc2c(c1)[nH]c1nccc(-c3nc(N4CCNCC4)c4c(C5CC5)cncc4n3)c12 [Example 1253, 4-(5-Cyclopropyl-4-piperazin-1-yl-pyrido[3,4-d]pyrimidin-2-yl)-9H-pyrido[2,3-b]indole trifluoroacetic acid salt]
24 | < 100 | C[C@@H](Nc1cc(-c2nc(N3CCNCC3)c3c(C4CC4)cncc3n2)ccn1)c1cccc2ccccc12 [Example 2165, [4-(5-Cyclopropyl-4-piperazin-1-yl-pyrido[3,4-d]pyrimidin-2-yl)-pyridin-2-yl]-((R)-1-naphthalen-1-yl-ethyl)-amine]
25 | < 100 | Fc1ccc(F)c(Nc2cc(-c3nc(N4CCNCC4)c4c(C5CC5)cncc4n3)ccn2)c1F [Example 266, [4-(5-Cyclopropyl-4-piperazin-1-yl-pyrido[3,4-d]pyrimidin-2-yl)-pyridin-2-yl]-(2,3,6-trifluoro-phenyl)-amine]
26 | < 100 | Fc1cccc(F)c1Nc1cc(-c2nc(NC3CNC3)c3c(C4CC4)cncc3n2)ccn1 [Example 2026, Azetidin-3-yl-{5-cyclopropyl-2-[2-(2,6-difluoro-phenylamino)-pyridin-4-yl]-pyrido[3,4-d]pyrimidin-4-yl}-amine]
27 | < 100 | COc1cncc2nc(-c3ccnc4[nH]c(Cc5ccccc5F)cc34)nc(N3CCNCC3)c12 [Example 1203, 2-[2-(2-Fluoro-benzyl)-1H-pyrrolo[2,3-b]pyridin-4-yl]-5-methoxy-4-piperazin-1-yl-pyrido[3,4-d]pyrimidine]
28 | < 100 | Cc1ccccc1Nc1cc(-c2nc(N3CCNCC3)c3c(C4CC4)cncc3n2)ccn1 [Example 486, [4-(5-Cyclopropyl-4-piperazin-1-yl-pyrido[3,4-d]pyrimidin-2-yl)-pyridin-2-yl]-o-tolyl-amine]
29 | < 100 | COc1cncc2nc(-c3ccnc(Nc4cccnc4F)c3)nc(N3CCNCC3)c12 [Example 450, (2-Fluoro-pyridin-3-yl)-[4-(5-methoxy-4-piperazin-1-yl-pyrido[3,4-d]pyrimidin-2-yl)-pyridin-2-yl]-amine]
30 | < 100 | Cn1ccc(Nc2cc(-c3nc(N4CCN[C@@H](C(F)(F)F)C4)c4c(C5CC5)cncc4n3)ccn2)n1 [Example 2053, {4-[5-Cyclopropyl-4-((R)-3-trifluoromethyl-piperazin-1-yl)-pyrido[3,4-d]pyrimidin-2-yl]-pyridin-2-yl}-(1-methyl-1H-pyrazol-3-yl)-amine]
